The assay addresses GluER (Gluconobacter oxydans, UniProt Q5FTL6, T36A). The assay can be described thus: UV-visible spectrum of reduced enzyme. It counts as binding. The settings on record: dithionite reduction.

As for `Cc1cc2c(cc1C)N(C[C@H](O)[C@H](O)[C@H](O)COP(=O)(O)O)c1[nH]c(=O)[nH]c(=O)c1N2` [FMNhq], the “UV-visible spectrum of reduced enzyme” value is reported as “UV-visible spectrum of reduced GluER-T36A (FMNhq)”.
